From the supplement of paper PMC10307832

Experiments:
Assay in all cases: relative viability (nuclei count vs DMSO), 5 days (fraction); higher = more cells survive
[1] = compound: CS(=O)(=O)N1CCN(Cc2cc3nc(-c4cccc5[nH]ncc45)nc(N4CCOCC4)c3s2)CC1 [Pictilisib] + CC(C)C[C@H](NC(=O)[C@H](Cc1ccccc1)NC(=O)c1cnccn1)B(O)O [Bortezomib] (partner 0.002 µM)
Summary of the method: (§1)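 For relative viability, nuclei counts in treated wells were divided by those in vehicle wells. Lung cancer cell lines had been pin-tool dosed in 1536-well plates the day after seeding and cultured for 5 days, then fixed and stained in one step (final 0.05% Triton X-100, 1% formaldehyde, 1 ug/ml Hoechst) and imaged at 4×. Doses were one drug alone or a fixed anchor-drug dose plus five library-drug doses (not always all listed) in √10 steps, and values are duplicate-plate medians.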

[2] = compound: CS(=O)(=O)N1CCN(Cc2cc3nc(-c4cccc5[nH]ncc45)nc(N4CCOCC4)c3s2)CC1 [Pictilisib] + CCNC(=O)c1noc(-c2cc(C(C)C)c(O)cc2O)c1-c1ccc(CN2CCOCC2)cc1 [Luminespib] (partner 0.01 µM)
Summary of the method: as §1

[3] = compound: NC1(c2ccc(-c3nc4ccn5c(=O)[nH]nc5c4cc3-c3ccccc3)cc2)CCC1 [MK-2206] + Cc1cc(Nc2cc(N3CCN(C)CC3)nc(Sc3ccc(NC(=O)C4CC4)cc3)n2)n[nH]1 [Tozasertib] (partner 0.1 µM)
Summary of the method: as §1

[4] = compound: CS(=O)(=O)N1CCN(Cc2cc3nc(-c4cccc5[nH]ncc45)nc(N4CCOCC4)c3s2)CC1 [Pictilisib] + CC(=O)c1c(C)c2cnc(Nc3ccc(N4CCNCC4)cn3)nc2n(C2CCCC2)c1=O [Palbociclib] (partner 0.5 µM)
Summary of the method: as §1

[5] = compound: CS(=O)(=O)N1CCN(Cc2cc3nc(-c4cccc5[nH]ncc45)nc(N4CCOCC4)c3s2)CC1 [Pictilisib] + NC(=O)Nc1cc(-c2cccc(F)c2)sc1C(=O)N[C@H]1CCCNC1 [AZD7762] (partner 0.2 µM)
Summary of the method: as §1

| Cell Line | relative viability ([1]; first compound 0.02 µM) | relative viability ([1]; first compound 0.06325 µM) | relative viability ([1]; first compound 0.6325 µM) | relative viability ([1]; first compound 2 µM) | relative viability ([2]; first compound 0.02 µM) | relative viability ([2]; first compound 0.06325 µM) | relative viability ([2]; first compound 0.6325 µM) | relative viability ([2]; first compound 2 µM) | relative viability ([3]; first compound 0.01 µM) | relative viability ([3]; first compound 0.03162 µM) | relative viability ([3]; first compound 0.3162 µM) | relative viability ([3]; first compound 1 µM) | relative viability ([4]; first compound 0.02 µM) | relative viability ([4]; first compound 0.06325 µM) | relative viability ([4]; first compound 0.6325 µM) | relative viability ([4]; first compound 2 µM) | relative viability ([5]; first compound 0.02 µM) | relative viability ([5]; first compound 0.06325 µM) | relative viability ([5]; first compound 0.6325 µM) | relative viability ([5]; first compound 2 µM) |
| --- | --- | --- | --- | --- | --- | --- | --- | --- | --- | --- | --- | --- | --- | --- | --- | --- | --- | --- | --- | --- |
| IA-LM | 0.791 | 0.721 | 0.732 | 0.308 |  |  |  |  |  |  |  |  |  |  |  |  |  |  |  |  |
| SW 900 |  |  |  |  | 0.183 | 0.15 | 0.163 | 0.158 | 0.561 | 0.531 | 0.569 | 0.698 | 0.543 | 0.58 | 0.358 | 0.252 | 0.747 | 0.623 | 0.431 | 0.352 |
| NCI-H1648 |  |  |  |  |  |  |  |  | 0.508 | 0.689 | 0.657 | 0.504 | 0.248 | 0.236 | 0.256 | 0.216 | 0.777 | 0.735 | 0.56 | 0.316 |
| SK-LU-1 | 1.64 | 1.27 | 0.81 | 0.63 | 0.227 | 0.193 | 0.168 | 0.178 | 0.212 | 0.334 | 0.376 | 0.291 | 0.401 | 0.382 | 0.307 | 0.31 |  |  |  |  |
| NCI-H358 |  |  |  |  | 0.382 | 0.348 | 0.161 | 0.146 | 0.0987 | 0.112 | 0.097 | 0.0994 | 0.116 | 0.165 | 0.121 | 0.115 | 0.542 | 0.521 | 0.335 | 0.267 |
| NCI-H1563 | 0.992 | 0.839 | 0.605 | 0.554 | 0.44 | 0.513 | 0.497 | 0.468 |  |  |  |  |  |  |  |  |  |  |  |  |
| LK-2 |  |  |  |  | 0.198 | 0.144 | 0.152 | 0.188 | 0.174 | 0.165 | 0.186 | 0.168 | 0.588 | 0.673 | 0.354 | 0.259 | 0.357 | 0.392 | 0.147 | 0.0792 |
| NCI-H2342 |  |  |  |  | 0.669 | 0.586 | 0.588 | 0.365 | 0.608 | 0.535 | 0.452 | 0.402 | 0.515 | 0.507 | 0.444 | 0.403 | 0.444 | 0.515 | 0.34 | 0.414 |
| SW 1573 | 0.822 | 1.08 | 0.775 | 0.333 | 0.185 | 0.196 | 0.187 | 0.189 | 0.242 | 0.152 | 0.175 | 0.127 | 0.417 | 0.345 | 0.207 | 0.191 |  |  |  |  |
| NCI-H2170 |  |  |  |  | 0.715 | 0.65 | 0.419 | 0.166 | 0.789 | 0.717 | 0.659 | 0.763 | 0.351 | 0.375 | 0.266 | 0.165 | 0.879 | 0.917 | 0.645 | 0.422 |
| NCI-H2009 | 1.06 | 1.05 | 0.871 | 0.671 | 1.01 | 1.05 | 1.04 | 0.773 | 0.657 | 0.674 | 0.677 | 0.639 | 0.149 | 0.175 | 0.165 | 0.125 |  |  |  |  |
| Calu-6 | 1.09 | 0.933 | 0.925 | 0.894 |  |  |  |  |  |  |  |  |  |  |  |  |  |  |  |  |
| NCI-H1395 |  |  |  |  | 0.704 | 0.838 | 0.748 | 0.534 | 0.825 | 0.693 | 0.683 | 0.631 | 0.657 | 0.696 | 0.515 | 0.412 | 0.44 | 0.416 | 0.375 | 0.338 |
| NCI-H1793 |  |  |  |  | 0.152 | 0.189 | 0.152 | 0.168 | 0.349 | 0.345 | 0.302 | 0.284 | 0.25 | 0.234 | 0.199 | 0.183 | 0.449 | 0.404 | 0.226 | 0.142 |
| SK-MES-1 |  |  |  |  | 0.748 | 0.702 | 0.279 | 0.219 | 0.813 | 0.847 | 0.885 | 0.794 | 0.326 | 0.302 | 0.346 | 0.262 |  |  |  |  |
| NCI-H1299 | 1.02 | 1.04 | 1.07 | 1.05 |  |  |  |  |  |  |  |  |  |  |  |  |  |  |  |  |
| NCI-H2228 | 0.915 | 1.04 | 0.689 | 0.528 | 0.12 | 0.184 | 0.129 | 0.121 | 0.388 | 0.235 | 0.221 | 0.11 | 0.64 | 1.04 | 0.492 | 0.282 |  |  |  |  |
| EBC-1 | 0.474 | 0.603 | 0.414 | 0.255 |  |  |  |  |  |  |  |  |  |  |  |  |  |  |  |  |
| COR-L23 | 1.1 | 1.04 | 1.03 | 0.963 | 0.768 | 0.808 | 0.562 | 0.442 | 0.186 | 0.243 | 0.234 | 0.17 | 0.335 | 0.349 | 0.273 | 0.208 |  |  |  |  |
| NCI-H1944 |  |  |  |  | 0.768 | 0.46 | 0.498 | 0.239 | 0.249 | 0.244 | 0.251 | 0.24 | 0.322 | 0.235 | 0.226 | 0.183 | 0.555 | 0.477 | 0.319 | 0.236 |
| NCI-H520 | 0.632 | 0.464 | 0.291 | 0.156 | 0.212 | 0.221 | 0.223 | 0.217 | 0.405 | 0.543 | 0.254 | 0.367 | 0.217 | 0.234 | 0.144 | 0.125 |  |  |  |  |
| COR-L 105 | 1.1 | 0.658 | 0.779 | 0.527 | 0.987 | 0.803 | 0.715 | 0.466 | 0.419 | 0.309 | 0.403 | 0.345 | 0.429 | 0.477 | 0.423 | 0.399 |  |  |  |  |
| NCI-H2023 | 1.17 | 0.764 | 0.511 | 0.223 | 0.936 | 0.753 | 0.286 | 0.103 | 0.345 | 0.347 | 0.239 | 0.197 | 0.339 | 0.33 | 0.161 | 0.148 |  |  |  |  |
